Measurements published in patent publication US11028128B2, “Inhibition of the aggregation of transthyretin by specific binding of peptides to aggregation-driving segments” (THE REGENTS OF THE UNIVERSITY OF CALIFORNIA, priority 2016, dated 2021).
Where no end group is shown, it is not given here.

Tests used:
[1] = system: recombinant wild type TTR and ATTR-D38A seeds; details: 180 μM peptide, 0.5 mg/ml recombinant wild type TTR, 30 ng/μl ATTR-D38A seeds, 37° C.; N-methylated peptide as noted in the cell
Protocol: (§1) Fibril extracts were used to seed the formation of new aggregates from recombinant TTR. In order to further purify the extracts, they were treated with 1% sodium dodecyl sulfate and the soluble fraction was discarded after centrifugation at 13,000 rpm for 5 minutes. This process was repeated two times. The sample was washed with distilled water three times by centrifugation, and then sonicated in cycles of 5 seconds on, 5 seconds off, for a total of 10 minutes, at minimum intensity (18%). The protein content was measured using the Pierce™ BCA Protein Assay Kit (ThermoFisher Scientific). Seeds were added to 0.5 mg/ml recombinant TTR in a final volume of 200 μl of 5 μM thioflavin T, 10 mM Sodium Acetate pH 4.3, 100 mM KCl, and 10 mM EDTA. Unless labeled otherwise, cardiac seeds were analyzed at 30 ng/μl concentration and seeds extracted from adipose tissue were analyzed at 5 ng/μl. Thioflavin fluorescence emission was measured at 482 nm with absorption at 440 nm in a Varioskan Flash (ThermoFisher Scientific) or FLUOstar Omega (BMG LabTech) plate readers. Plates were incubated at 37° C. for 20-72 h as labeled with cycles of 9 min shake (700 rpm double orbital) and 1 min rest throughout the incubation. Measurements were taken with automatic gain if read in Varioskan Flash, or with a manual gain of 1,000 if read in FLUOstar Omega, every 10 min, bottom read. We normalized all our assays by subtracting ThT signal at initial point of incubation. Figures show ThT signal in arbitrary units (a.u.). Fibril formation was confirmed by TEM.
(§2) Amyloid seeding assays were performed as described above. 180 μM peptide was added to 0.5 mg/ml recombinant wild type TTR and 30 ng/μl ATTR-D38A seeds. Amyloid seeding was measured after 24 hour of incubation at 37° C. by ThT fluorescence. Thioflavin T signal obtained in the absence of peptide was considered 100%.

[2] = target: recombinant wild type TTR and ATTR-D38A seeds (Homo sapiens, UniProt P02766); details: 0.5 mg/ml recombinant TTR, 30 ng/μl ATTR-D38A seeds, increasing compound concentrations
Protocol: as §1, §2

[3] = target: T1, recombinant wild type TTR (Homo sapiens, UniProt P02766); assay: TTR aggregation assay in the absence of seeds (absorbance at 400 nm); assay type: biochemical; details: 1 mg/ml recombinant wild type TTR, increasing amounts of stabilizer, 4 days
T1 construct: made in house; host or cells: E. coli
Protocol: Next we tested the ability of compounds and mutations that stabilize native, tetrameric TTR to halt amyloid formation induced by disease-related amyloid seeds. […] For these aggregation assays, we incubated 1 mg/ml recombinant wild type TTR with increasing amounts of stabilizers.
TTR aggregation assays are described previously (32). […] Protein aggregation was followed by absorbance at 400 nm, anti-TTR immuno-dot blot of the insoluble fraction, and/or transmission electron microscopy.

**Q.** RRRRPFHEHAEVVFTA [TabF1] was tested. Which “B. ThT signal (20h, no inhibitor was normalized to 100%, SD = 11.42)” value [1] did it give?
**A.** The value was 60.45 ± 3.90 (N-me-A12) %.

**Q.** `O=C(O)c1ccc2nc(-c3cc(Cl)cc(Cl)c3)oc2c1` [tafamidis] was tested. Which “fibril formation with ATTR-D38A ex-vivo seeds in presence of stabilizer” value [2] did it give?
**A.** Its value is “did not reduce or delay fibril formation”.

**Q.** What about the “TTR aggregation in the absence of seeds” value [3] of the same molecule?
**A.** Its value is “considerably diminished in a dose-dependent manner”.

**Q.** With “RRRRPYSYSTTAVVTN (not fully specified (residue 12)) [TabH1]” as the molecule, how does the “B. ThT signal (20h, no inhibitor was normalized to 100%, SD = 11.42)” value [1] read?
**A.** Its value is 32.48 ± 2.39 (N-me-E11) %.

**Q.** Which “fibril formation with ATTR-D38A ex-vivo seeds in presence of stabilizer” value [2] does the source give for `O=C(O)c1cc(-c2ccc(F)cc2F)ccc1O` [diflunisal] here?
**A.** Its value is “did not reduce or delay fibril formation”.

**Q.** And the “TTR aggregation in the absence of seeds” value [3]?
**A.** Its value is “considerably diminished in a dose-dependent manner”.
